Test results as given in US20210198284A1, “GOLD COMPOSITIONS AND METHODS OF USE THEREOF” (THE UNIVERSITY OF MASSACHUSETTS, priority 2018, published 2021).
Read-outs that look alike come from different tables or passages of the source.

Legend:
A. baumannii NCTC 13420 = assay: Antibacterial assay, MIC/MBC by broth microdilution (CLSI); type: cell-based; conditions: A. baumannii NCTC 13420; for MIC: repeated twice, a/b = both values
Experimental: (§1) Antibacterial assay. The minimum inhibitory concentrations (MICs) and the minimum bactericidal concentrations (MBCs) were determined by the broth microdilution method as described in the CLSI (The Clinical & Laboratory Standards Institute) guidelines (Performance standards for antimicrobial susceptibility testing: Clinical and Laboratory Standards Institute (CLSI), Twenty-Fifth informational supplement. Document M100-S25: […]; Vol. 35). All bacterial strains were cultured in cation-adjusted Muller Hinton broth (CAMHB) up to log-phase and then diluted to give a concentration of 7.5×10^5 CFU/mL. The gold complexes were dissolved in DMSO or water as stock solutions, which were then serially diluted two-fold in a 96-well plate. Aliquots (100 μL) of the dilutions were mixed with equal volumes of the bacterium suspension in a 96 well plate (in triplicates). The plates were incubated at 37° C. for 18 h without shaking. Negative and positive controls were included in the same well plate with wells having the culture medium only and bacteria solution only, respectively. The sample concentration that gave inhibition values above 90% were determined as MICs as calculated from absorbance values at 600 nm (OD600) obtained using a Tecan SPARK IOM plate reader. To determine minimum bactericidal concentrations (MBCs), agar plates were treated with 5 μL sample solutions from each well, and then incubated at 37° C. for 18 h without shaking. The sample concentration that gave no colony formed on agar plates were determined as MBCs.
(§2) Selection of bacteria. The ESKAPE pathogens were chosen as they are responsible for the majority of nosocomial infections and also as they provide a good scope of strains including both Gram-negative and Gram-positive species. A. baumannii NCTC 13420 was originally identified in 24 hospitals in the UK during 2000-2003, which produced OXA-51-like β-lactamases, and was highly resistant to ampicillin, piperacillin, piperacillin/tazobactam, ceftazidime, cefotaxime, gentamicin and ciprofloxacin. P. aeruginosa NCTC13437 produces VIM-10 metallo-carbapenemase and VEB-1 (Vietnamese extended-spectrum beta-lactamase). Wild-type strain E. cloacae NCTC 13405 (originally named E. cloacae 684) was isolated from patients at the London Hospital during 1982-1983. This strain has inducible AmpC β-lactamase and is resistant to ampicillin/amoxicillin and cefoxitin. K. pneumoniae ATCC 700603 was isolated from the urine of a hospitalized patient in Richmond, Va. in 1994, and it produces SHV-18 extended spectrum beta-lactamase (ESBL). JE2 (USA300) is a methicillin-resistant S. aureus (MRSA) strain, also resistant to beta-lactams, ciprofloxacin, tetracycline, macrolides (erythromycin), lincosamides (clindamycin), streptogramin B, and mupirocin. E. faecium ATCC 700221, a positive fecal VRE (vancomycin-resistant enterococcus) isolate, is resistant to several antibiotics including vancomycin and teicoplanin. The quality control strain, Gram-negative E. coli ATCC 25922, was included in all assays and validated with ciprofloxacin and […].

E. cloacae NCTC 13405 = assay: as above; type: cell-based; conditions: E. cloacae NCTC 13405; for MIC: repeated twice, a/b = both values
Experimental: as §1, §2

E. coli ATCC 25922 = assay: as above; type: cell-based; conditions: for MIC: repeated twice, a/b = both values
Experimental: as §1, §2

E. faecalis ATCC 700221 = assay: as above; type: cell-based; conditions: for MIC: repeated twice, a/b = both values
Experimental: as §1, §2

[1] = tested on: K. pneumoniae ATCC 700603; assay: as above; type: cell-based; conditions: K. pneumoniae ATCC 700603; for MIC: repeated twice, a/b = both values
Experimental: as §1, §2

P. aeruginosa NCTC 13437 = assay: as above; type: cell-based; conditions: P. aeruginosa NCTC 13437; for MIC: repeated twice, a/b = both values
Experimental: as §1, §2

S. aureus JE2 (USA300) = assay: as above; type: cell-based; conditions: S. aureus JE2 (USA300); for MIC: repeated twice, a/b = both values
Experimental: as §1, §2

A549 cells = assay: Cytotoxicity assay (resazurin); type: cell-based; conditions: 20 h, mean±S.E.M. from two independent experiments
Experimental: Sample preparation. The compounds were dissolved in DMSO at 12.8 mg/mL as the stock solutions, except for compounds 9-17, which were directly dissolved in the culture medium at 12.8 mg/mL. The stock solutions were diluted by the culture medium to the testing concentration at 128 μg/mL (compound 9-17 were diluted to 1,280 μg/mL). The solutions were then serially diluted two fold in a 96-well plate and were used in the cytotoxicity assay immediately.
Cell culture and cytotoxicity assay. A549 cells (ATCC CCL-185) were cultured in high glucose DMEM (Sigma-Aldrich, D6429) supplemented with 10% FBS, 1% penicillin-streptomycin solution (Sigma-Aldrich, P4333), 1% gentamicin solution (Sigma-Aldrich, G1272) and 1% amphotericin B solution (Sigma-Aldrich, A2942) at 37° C. in a humidified atmosphere containing 5% CO2. After cells reached 80%˜90% confluency, they were detached and counted using an Invitrogen Countess automated cell counter. Cells with viability over 90% were seeded at a density of 5×10^3 cells per well in 96-well cell culture plates. After overnight culture, the culture medium in each well removed with a pipet. 80 μL of the compound solutions from each well of the 96-well plate prepared above were transferred to this 96-well plate containing the cells, and the plates were incubated for 20 h. After addition of 8 μL of 110 μg/mL resazurin, the plates were incubated for further 3 h at 37° C. in 5% CO2. The fluorescence intensity was measured using a Tecan M200 Infinite Pro microplate reader at excitation 560 nm, emission 590 nm. IC50 were calculated by curve fitting the inhibition values vs. log(concentration) using GraphPad's Prism. The cytotoxicity assays (in triplicate) were repeated twice using freshly prepared cells and compound solutions.

[2] = Log P determination (n-octanol/water, FAAS)
Experimental: Log P Determination: Calibration curves. Milli-Q Water (150 mL) was added to n-octanol (150 mL), and the mixture was stirred for 3 days to allow both phases to reach saturation. The gold standard solution (1000 ppm Au in hydrochloric acid, Fisher Scientific) was diluted to 1, 2, 3, 4 and 5 ppm with n-octanol-saturated water, and the absorbance of the resulting solutions was measured by flame atomic absorption spectroscopy (FAAS, Agilent Technology 200 Series AA, equipped with a gold HC Lamp-Au coded). The absorbance data were plotted against Au concentration, and the resulting calibration curve was used for determining the concentration of the analogs in the aqueous phase.
To construct the standard calibration curve of the Au concentration in the n-octanol phase, compound 27 was used. The Au concentration in compound 27 was first calibrated against the aqueous gold standard. For this, 0.440 mg of compound 27 was weighed on a Sartorius MC5 microbalance, and then added to 22 mL of n-octanol-saturated water. […] For this, solutions of varying concentrations (0.99, 2.47, 4.94, 5.93, 9.88 ppm) of compound 27 in water-saturated n-octanol were prepared. The absorbance was measured by FAAS, and the data were plotted against the Au concentration to provide a second calibration curve, which was used for determining the Au concentration of the analogs in the n-octanol phase.
Determination of Au concentrations: Method 1. 0.5 to 1 mg of compound was weighed into a 2-mL Eppendorf tube containing 2 mL of n-octanol-saturated water. After shaking for about 4 h, the solution was centrifuged at 6000 rpm for 3 min. 1 mL of the supernatant was transferred to a new tube containing 1 mL of water-saturated n-octanol, and the mixture was shaken for 1 h. After centrifugation at 6000 rpm for 5 min, the two layers were collected and the gold concentration in each layer was determined by FAAS by comparing the absorbance to the first and second calibration curves.
Determination of Au concentrations: Method 2. […] For Method 2, 0.6 to 1 mg of compound was weighed into a 2-mL Eppendorf tube containing 1 mL of n-octanol-saturated water and 1 mL of water-saturated n-octanol. After shaking for 3-4 h, the mixture was centrifuged, and all liquid was transferred to a 15-mL tube. The liquid was then diluted with 2 mL of n-octanol-saturated saturated water and 2 mL of water-saturated n-octanol, and the mixture was shaken for another hour. After centrifugation at 6000 rpm for 5 min, the two layers were collected and the gold concentration in each layer was determined by FAAS by comparing the absorbance to the first and second calibration curves.
Log P was calculated as follows: log P=log[compound]oct/[compound]water

Substance	MBC (in brackets) (A. baumannii NCTC 13420)	MIC (A. baumannii NCTC 13420)	MBC (in brackets) (E. cloacae NCTC 13405)	MIC (E. cloacae NCTC 13405)	MBC (in brackets) (E. coli ATCC 25922)	MIC (E. coli ATCC 25922)	MBC (in brackets) (E. faecalis ATCC 700221)	MBC (in brackets) [1]	MIC [1]	MBC (in brackets) (P. aeruginosa NCTC 13437)	MIC (P. aeruginosa NCTC 13437)	MBC (in brackets) (S. aureus JE2 (USA300))	MIC (S. aureus JE2 (USA300))	IC50 against A549 cells (A549 cells)	Log P [2]	MIC (E. faecalis ATCC 700221)	Log P ([2]; n-octanol/water, gold by FAAS)
(1-Thio-β-D-galatopyranosato)(triethylphosphine) gold(I) [Compound 10]	31 (31) μM/mL	31 (31) μM/mL	63 (63) μM/mL	63 (63) μM/mL	16 (16) μM/mL	16 (16) μM/mL	(0.5) μM/mL	251 (251) μM/mL	251 (251) μM/mL	251 (251) μM/mL	251 (251) μM/mL	(0.1) μM/mL	0.02 μM/mL	16.9 ± 0.5 µg/mL	−0.73	–	–
(1-Thio-β-D-galatopyranosato)(trimethylphosphine) gold(I) [Compound 16]	17 μM/mL	17/9	4(4) μM/mL	4(4) μM/mL	9 (9) μM/mL	9 (9) μM/mL	(0.5) μM/mL	34 (34) μM/mL	34 (34) μM/mL	–	>547 μM/mL	0.3 (0.3) μM/mL	0.3 (0.3) μM/mL	43.0 ± 3.7 µg/mL	−1.88	–	–
(1-Thio-β-D-glucopyranosato)(trimethylphosphine) gold(I) [Compound 15]	17 μM/mL	17/4	17 μM/mL	4/9	9 (9) μM/mL	9 (9) μM/mL	(0.5) μM/mL	34 (34) μM/mL	34 (34) μM/mL	–	>547 μM/mL	(1) μM/mL	–	52.2 ± 1.0 µg/mL	−1.63	–	–
(1-Thio-β-D-maltosato)(triethylphosphine) gold(I) [Compound 14]	24 (24) μM/mL	24 (24) μM/mL	190 (190) μM/mL	190 (190) μM/mL	12 (12) μM/mL	12 (12) μM/mL	(0.4) μM/mL	–	>381 μM/mL	381 (381) μM/mL	381 (381) μM/mL	4 (0.09) μM/mL	–	31.0 ± 2.4 µg/mL	−1.69	–	–
(2-Acetamido-2-deoxy-1-thio-β-D-glucopyranosato)(trimethylphosphine) gold(I) [Compound 17]	16 μM/mL	16/8	16 μM/mL	8/16	(31) μM/mL	8/31	(0.5) μM/mL	126 μM/mL	31 μM/mL	–	>503 μM/mL	0.5 (0.5) μM/mL	0.5 (0.5) μM/mL	35.5 ± 0.9 µg/mL	−2.03	–	–
(Triphenylphosphine) gold chloride [Compound 31]	–	–	–	>518 μM/mL	–	>518 μM/mL	4 (4) μM/mL	–	>518 μM/mL	–	>518 μM/mL	4 μM/mL	1/2	12.0 ± 1.8 µg/mL	–	4 (4) μM/mL	>3.94
[β-D-galactopyranosyl-(1→4)-β-D-glucopyranosato](triethylphosphine) gold(I) [Compound 13]	–	24/48	190 (190) μM/mL	190 (190) μM/mL	24 (24) μM/mL	24 (24) μM/mL	(0.4) μM/mL	381 (381) μM/mL	381 (381) μM/mL	381 (381) μM/mL	381 (381) μM/mL	5 (0.09) μM/mL	–	32.9 ± 4.6 µg/mL	–	0.09 μM/mL	–
